# Source: ChEMBL document CHEMBL6103619, “Discovery of a Novel CRBN-Recruiting cGAS PROTAC Degrader for the Treatment of Ulcerative Colitis” (J Med Chem, 2025)
# Active and inactive are the calls of the source. No cut-off for these calls is given here.
# Experiments:
# [1] = Inhibition of dsDNA-induced cGAS signaling pathway in human THP1-Lucia ISG cells preincubated with compound for 24 hrs followed by HT-DNA addition and measured after 24 hrs by QUANTI-Luc luciferase reagent based assay; assay type: cell-based
# [2] = Inhibition of dsDNA-induced cGAS signaling pathway in mouse RAW-Lucia ISG cells preincubated with compound for 24 hrs followed by HT-DNA addition and measured after 24 hrs by QUANTI-Luc luciferase reagent based assay; assay type: cell-based
# [3] = tested on: THP-1; assay: Induction of cGAS degradation in human THP-1 cells at 10 uM preincubated with compound for 40 hrs followed by HT-DNA stimulation and measured after 8 hrs by Western blot analysis relative to control; assay type: cell-based; conditions: time 48.0 hrs
# [4] = target: Protein cereblon/Cyclic GMP-AMP synthase (Homo sapiens, UniProt Q96SW2+Q8N884); assay: PROTAC activity at CRBN/cGAS in human THP-1 cells assessed as induction of cGAS degradation at 10 uM incubated for 48 hrs by Western blot analysis; assay type: cell-based
# Chain of Protein cereblon/Cyclic GMP-AMP synthase (Q8N884 whole entry, looked up): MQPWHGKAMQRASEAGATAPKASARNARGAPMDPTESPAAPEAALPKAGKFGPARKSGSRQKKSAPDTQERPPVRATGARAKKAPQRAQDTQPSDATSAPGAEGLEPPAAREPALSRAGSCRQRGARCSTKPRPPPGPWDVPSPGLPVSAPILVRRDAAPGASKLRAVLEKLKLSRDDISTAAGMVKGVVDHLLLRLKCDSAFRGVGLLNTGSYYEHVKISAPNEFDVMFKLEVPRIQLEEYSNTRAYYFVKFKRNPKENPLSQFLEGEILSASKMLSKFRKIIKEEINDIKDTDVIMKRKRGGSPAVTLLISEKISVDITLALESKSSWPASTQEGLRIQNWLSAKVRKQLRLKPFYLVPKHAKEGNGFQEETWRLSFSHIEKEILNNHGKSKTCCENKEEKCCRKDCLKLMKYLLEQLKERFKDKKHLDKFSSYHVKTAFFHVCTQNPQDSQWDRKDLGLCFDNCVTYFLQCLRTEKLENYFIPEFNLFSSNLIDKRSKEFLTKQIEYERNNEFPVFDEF
# Chain of Protein cereblon/Cyclic GMP-AMP synthase (Q96SW2 whole entry, looked up): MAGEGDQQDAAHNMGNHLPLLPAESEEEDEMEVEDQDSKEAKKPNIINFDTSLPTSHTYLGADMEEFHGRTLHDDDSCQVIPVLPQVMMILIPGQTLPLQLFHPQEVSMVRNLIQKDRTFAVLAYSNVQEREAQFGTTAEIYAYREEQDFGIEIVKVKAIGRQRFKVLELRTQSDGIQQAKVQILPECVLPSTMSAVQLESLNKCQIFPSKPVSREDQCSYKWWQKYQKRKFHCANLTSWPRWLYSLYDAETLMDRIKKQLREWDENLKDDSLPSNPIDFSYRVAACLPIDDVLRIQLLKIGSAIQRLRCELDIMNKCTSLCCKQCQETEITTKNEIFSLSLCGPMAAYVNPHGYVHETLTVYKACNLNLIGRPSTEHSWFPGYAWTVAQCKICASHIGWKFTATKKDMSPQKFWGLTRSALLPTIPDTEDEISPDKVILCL
# [5] = tested on: THP-1; assay: Cytotoxicity against human THP-1 cells assessed as reduction in cell viability at >30 uM incubated for 48 hrs by CCK8 assay; assay type: toxicity, cell-based; conditions: thp-1, 48 h
# [6] = target: T1, Protein cereblon/Cyclic GMP-AMP synthase (Mus musculus) (UniProt Q8C6L5+Q8C7D2); assay: (§1) In vivo inhibition of cGAS signaling pathway in DSS-induced ulcerative colitis C57BL/6 mouse model assessed as reduction in cGAS protein level in colon at 50 mg/kg/day, ip preadministered with DSS for 7 days followed by replacement with ultrapure water for 3 days with subsequent compound administration starting from day 4 to 10 and measured on day 11 by Western blot analysis; assay type: functional, organism-based; conditions: time 8.0 day
# T1 sequence (Q8C6L5 whole entry, looked up): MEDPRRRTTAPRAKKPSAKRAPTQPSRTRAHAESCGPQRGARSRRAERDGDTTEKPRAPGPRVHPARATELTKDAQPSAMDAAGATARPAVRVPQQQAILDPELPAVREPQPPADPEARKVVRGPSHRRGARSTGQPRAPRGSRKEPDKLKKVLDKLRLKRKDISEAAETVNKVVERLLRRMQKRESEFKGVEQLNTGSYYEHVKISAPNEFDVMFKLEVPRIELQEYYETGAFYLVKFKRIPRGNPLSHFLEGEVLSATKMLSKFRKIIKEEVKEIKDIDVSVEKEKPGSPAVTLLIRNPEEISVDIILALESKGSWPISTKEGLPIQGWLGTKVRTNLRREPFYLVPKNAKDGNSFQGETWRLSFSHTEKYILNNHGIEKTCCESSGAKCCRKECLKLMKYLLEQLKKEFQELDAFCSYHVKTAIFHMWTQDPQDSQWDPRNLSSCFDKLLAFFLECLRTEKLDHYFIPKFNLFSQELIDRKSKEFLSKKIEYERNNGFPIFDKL
# T1 sequence (Q8C7D2 whole entry, looked up): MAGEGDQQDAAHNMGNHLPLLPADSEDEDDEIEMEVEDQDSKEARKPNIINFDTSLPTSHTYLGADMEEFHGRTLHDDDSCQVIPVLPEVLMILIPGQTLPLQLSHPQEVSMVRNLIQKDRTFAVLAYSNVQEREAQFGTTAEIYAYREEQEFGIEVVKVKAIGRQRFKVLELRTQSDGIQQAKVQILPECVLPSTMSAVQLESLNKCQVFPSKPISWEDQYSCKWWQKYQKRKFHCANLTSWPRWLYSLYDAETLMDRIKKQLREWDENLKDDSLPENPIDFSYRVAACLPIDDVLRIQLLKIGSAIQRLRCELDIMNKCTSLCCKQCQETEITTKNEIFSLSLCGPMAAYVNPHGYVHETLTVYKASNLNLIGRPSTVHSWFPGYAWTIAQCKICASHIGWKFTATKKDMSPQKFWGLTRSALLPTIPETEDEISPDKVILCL
# [7] = tested on: Mus musculus; assay: as §1, with “Anti-inflammatory activity” for “In vivo inhibition of cGAS signaling pathway”, “NET generation by measuring reduction in citH3” for “cGAS protein”; assay type: functional, organism-based; conditions: time 8.0 day
# [8] = target: T1, Protein cereblon/Cyclic GMP-AMP synthase (Mus musculus); assay: as §1, with “200” for “50”, “po” for “ip”; assay type: functional, organism-based; conditions: time 8.0 day
# [9] = tested on: Mus musculus; assay: as §1, with “Anti-inflammatory activity” for “In vivo inhibition of cGAS signaling pathway”, “NET generation by measuring reduction in citH3” for “cGAS protein”, “200” for “50”, “po” for “ip”; assay type: functional, organism-based; conditions: time 8.0 day
Compound,IC50 [1],IC50 [2],Activity [3],Activity [4],Activity [5],inhibition [6],Activity [7],inhibition [8],Activity [9]
Cn1ccc(-c2cc(Cl)c(Cl)c3[nH]c4c(c23)CN(C(=O)CO)CC4)n1,4.1 µM,13.1 µM,8.3%,inactive,Toxic,Active; Minor Changes Observed,Active,,
Nc1ccc(O)c(C(=O)O)c1,,,,,,,,Active; Minor Changes Observed,Active
